From patent US9018175B2 (Takeda GmbH, priority 2009, dated 2015)

Experiments:
PDE4B1 = biological target: T1, PDE4B1 (Homo sapiens, UniProt Q07343); test: Inhibition of PDE4B1 activity (SPA, [3H]cAMP); type: biochemical; details: recombinant PDE4B1 expressed in SF21 cells; 0.5 pM [sic] cAMP; values given as bins; read-out: PDE4B1 inhibitory values measured as −logIC50 (converted)
T1 construct: made in house; host or cells: SF21 insect cells (baculovirus; pCR-Bac vector)
Method: The PDE4B1 (GB no. L20966) was a gift of Prof. M. Conti (Stanford University, USA). It was amplified from the original plasmid (pCMV5) via PCR with primers Rb18 (5′-[…]-3′) and Rb10 (5′-[…]-3′) and cloned into the pCR-Bac vector (Invitrogen, Groningen, NL).
The recombinant baculovirus was prepared by means of homologous recombination in SF9 insect cells. The expression plasmids were cotransfected with Baculo-Gold DNA (Pharmingen, Hamburg) using a standard protocol (Pharmingen, Hamburg). Wt virus-free recombinant virus supernatants were selected using plaque assay methods. After that, high-titre virus supernatants were prepared by amplifying 3 times. PDE4B1 was expressed in SF21 cells by infecting 2×10^6 cells/ml with an MOI (multiplicity of infection) between 1 and 10 in the serum-free medium Insect Express Sf9-S2 (PAA, Pasching, Austria). The cells were cultured at 28° C. for 48-72 hours, after which they were pelleted for 5-10 min at 1000×g and 4° C.
The SF21 insect cells were resuspended, at a concentration of approx. 10^7 cells/ml, in ice-cold (4° C.) homogenization buffer (20 mM Tris, pH 8.2, containing the following additions: 140 mM NaCl, 3.8 mM KCl, 1 mM EGTA, 1 mM MgCl2, 10 mM e-mercaptoethanol, 2 mM benzamidine, 0.4 mM Pefablock, 10 pM leupeptin, 10 pM pepstatin A, 5 pM trypsin inhibitor) and disrupted by ultrasonication. The homogenate was then centrifuged for 10 min at 1000, g and the supernatant was stored at −80° C. until subsequent use (see below). The protein content was determined by the Bradford method (BioRad, Munich) using BSA as the standard.
PDEB1 activities were measured in a 96-well platform using SPA (scintillation proximity assay) yttrium silicate beads (RPNQ1050 from GE Healthcare). In a first step the PDE activity operates hydrolysis of either [^3H] cAMP (substrate) into [^3H] 5′AMP. In a second step substrate and product are distinguished following addition of SPA yttrium silicate beads. Indeed, in the presence of zinc sulphate the linear [^3H] […] Close proximity of bound [^3H] […] The test volume is 100 pl and contains 20 mM Tris buffer (pH 7.4), 0.1 mg/ml of BSA, 5 mM Mg^2+, […] (including about 50,000 cpm of [3H]cAMP), 1 pl of the respective substance dilution in DMSO and sufficient recombinant PDE (1000, g supernatant, see above) to ensure that 10-20% of the cAMP is converted under the said experimental conditions. […] After a preincubation of 5 min at 37° C., the reaction is started by adding the substrate (cAMP) and the assays are incubated for a further 15 min; after that, they are stopped by adding SPA beads (50 pl). In accordance with the manufacturer's instructions, the SPA beads had previously been resuspended in water, but were then diluted 1:3 (v/v) in water; the diluted solution also contains 3 mM IBMX to ensure a complete PDE activity stop. After the beads have been sedimented (>30 min), the MTP's are analyzed in commercially available luminescence detection devices. The corresponding IC50 values of the compounds for the inhibition of PDE4B1 activity are determined from the concentration-effect curves by means of non-linear regression.

human PDE5 = biological target: T2, human PDE5 (Homo sapiens, UniProt O76074); test: Inhibition of PDE5 activity (SPA, [3H]cGMP, platelet lysate); type: biochemical; details: PDE5 from human platelet lysate; values given as bins; read-out: PDE5A inhibitory values measured as −logIC50 (converted)
T2 construct: from tissue; host or cells: human platelets from fresh donor blood (10,000 g supernatant of sonicated platelets)
Method: As a source for human PDE5, platelets are used. For that purpose, 150 ml fresh blood from human donors anticoagulated with citrate [final concentration 0.3% (w/v)] is centrifuged at 200 g for 10 min to obtain the so-called platelet-rich-plasma (PRP) as a supernatant. 1/10 volume of ACD solution (85 mM Na3-citrate, 111 mM D-glucose, 71 mM citric acid, pH 4.4) is added to 9/10 volume of PRP. After centrifugation (1,400 g, 10 min) the cell pellet is resuspended in 3 ml homogenization buffer (NaCl 140 mM, KCl 3.8 mM, EGTA (ethylene glycol tetraacetic acid) 1 mM, MgCl2 1 mM, Tris-HCl 20 mM, beta-mercaptoethanol 1 mM, pH 8.2) plus protease-inhibitor mix giving rise to the final concentrations of 0.5 mM Pefablock (Roche), 10 μM Leupeptin, 5 μM Trypsininhibitor, 2 mM Benzamidin and 10 μM Pepstatin A. The suspension is sonified and thereafter centrifuged for 15 min at 10,000 g. The resulting supernatant (platelet lysate) is used for enzymatic testings.
PDE5 activities were measured in a 96-well platform using SPA (scintillation proximity assay) yttrium silicate beads (RPNQ1050 from GE Healthcare). In a first step the PDE activity operates hydrolysis of either [^3H] cGMP (substrate) into [^3H] 5′GMP. In a second step substrate and product are distinguished following addition of SPA yttrium silicate beads. Indeed, in the presence of zinc sulphate the linear [^3H] […] Close proximity of bound [^3H] […] The test volume is 100 pl and contains 20 mM Tris buffer (pH 7.4), 0.1 mg of BSA (bovine serum albumin)/ml, 5 mM Mg^2+, 1 μM motapizone (PDE3 Inhibitor), 10 nM PDE2 inhibitor 2-(3,4-dimethoxybenzyl)-7-[(1R,2R)-2-hydroxy-1-(2-phenylethyl)propyl]-5-methylimidazo[5,1-f][1,2,4]triazin-4(3H)-one, […] (cyclic guanosine monophosphate) (including about 50,000 cpm of [3H]cGMP as a tracer), 1 pl of the respective compound dilution in dimethylsulfoxide (DMSO) and sufficient PDE5-containing platelet lysat (10,000, g supernatant, see above) to ensure that 10-20 wt % of the cGMP is converted under the said experimental conditions. […] After a preincubation of 5 min at 37° C., the reaction is started by adding the substrate (cGMP) and the assay is incubated for a further 15 min; after that, it is stopped by adding SPA beads (50 pl). In accordance with the manufacturer's instructions, the SPA beads had previously been resuspended in water, but are then diluted 1:3 (v/v) in water; the diluted solution also contains 3 mM […]3-isobutyl-1-methylxanthine (IBMX) to ensure a complete PDE activity stop. After the beads have been sedimented (>30 min), the MTP's are analyzed in commercially available luminescence detection devices. The corresponding IC50 values of the compounds for the inhibition of PDE activity are determined from the concentration-effect curves by means of non-linear regression.

T1 sequence (Q07343 whole entry): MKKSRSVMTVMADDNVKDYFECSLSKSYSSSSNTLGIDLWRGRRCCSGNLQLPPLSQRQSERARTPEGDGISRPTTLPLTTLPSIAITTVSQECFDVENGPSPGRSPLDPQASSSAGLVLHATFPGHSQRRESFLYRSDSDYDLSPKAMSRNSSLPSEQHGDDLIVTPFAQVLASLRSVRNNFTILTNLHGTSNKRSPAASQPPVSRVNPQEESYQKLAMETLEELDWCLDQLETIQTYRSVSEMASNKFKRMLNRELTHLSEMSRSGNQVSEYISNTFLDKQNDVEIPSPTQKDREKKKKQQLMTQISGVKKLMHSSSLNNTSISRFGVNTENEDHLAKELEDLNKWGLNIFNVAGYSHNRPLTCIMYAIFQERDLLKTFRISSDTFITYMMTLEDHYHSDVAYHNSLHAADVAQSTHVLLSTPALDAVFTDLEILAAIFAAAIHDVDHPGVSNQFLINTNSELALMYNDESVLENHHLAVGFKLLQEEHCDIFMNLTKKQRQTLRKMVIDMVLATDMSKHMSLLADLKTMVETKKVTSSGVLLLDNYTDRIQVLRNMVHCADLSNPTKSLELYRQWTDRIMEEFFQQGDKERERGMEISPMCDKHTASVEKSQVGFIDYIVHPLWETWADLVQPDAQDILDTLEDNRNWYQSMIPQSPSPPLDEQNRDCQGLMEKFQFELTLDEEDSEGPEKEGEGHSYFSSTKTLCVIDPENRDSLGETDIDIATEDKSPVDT

Row | Compound | IC50 (PDE4B1) [nM] | IC50 (human PDE5) [nM]
1 | CCOc1cc2c(cc1OC)C(c1ccc(C(=O)N3CCC(n4c(=O)c5sc(-c6ccccc6)cc5n(Cc5cnn(CC)c5)c4=O)CC3)cc1)=N[C@@H]1CCSC[C@H]21 [Example 17, 3-[1-({4-[(4aR,10bR)-9-ethoxy-8-methoxy-3,4,4a,10b-tetrahydro-1H-thiopyrano[4,3-c]isoquinolin-6-yl]phenyl}carbonyl)piperidin-4-yl]-1-[(1-ethyl-1H-pyrazol-4-yl)methyl]-6-phenylthieno[3,2-d]pyrimidine-2,4(1H,3H)-dione] | 1 to 10 | > 100
2 | CCOc1cc2c(cc1OC)C(c1cccc(C(=O)N3CCC(n4c(=O)c5sc(-c6ccc7c(c6)OCO7)cc5n(Cc5nnn(CC)n5)c4=O)CC3)c1)=N[C@@H]1CCSC[C@H]21 [Example 31, 6-(1,3-benzodioxol-5-yl)-3-[1-({3-[(4aR,10bR)-9-ethoxy-8-methoxy-3,4,4a,10b-tetrahydro-1H-thiopyrano[4,3-c]isoquinolin-6-yl]phenyl}carbonyl)piperidin-4-yl]-1-[(2-ethyl-2H-tetrazol-5-yl)methyl]thieno[3,2-d]pyrimidine-2,4(1H,3H)-dione] | > 10 | < 10
3 | CCOc1cc2c(cc1OC)C(c1ccc(C(=O)N3CCC(n4c(=O)c5sc(-c6ccccc6)cc5n(Cc5cc(CC)no5)c4=O)CC3)cc1)=N[C@@H]1CCSC[C@H]21 [Example 3, 3-[1-({4-[(4aR,10bR)-9-ethoxy-8-methoxy-3,4,4a,10b-tetrahydro-1H-thiopyrano[4,3-c]isoquinolin-6-yl]phenyl}carbonyl)piperidin-4-yl]-1-[(3-ethylisoxazol-5-yl)methyl]-6-phenylthieno[3,2-d]pyrimidine-2,4(1H,3H)-dione] | 1 to 10 | < 10

Second part, the compound after the results:

Row | IC50 (PDE4B1) [nM] | IC50 (human PDE5) [nM] | Compound
4 | 1 to 10 | 10 to 100 | CCOc1cc2c(cc1OC)C(c1ccc(C(=O)N3CCC(n4c(=O)c5sc(-c6ccccc6)cc5n(Cc5nc(CC)ns5)c4=O)CC3)cc1)=N[C@@H]1CCSC[C@H]21 [Example 22, 3-[1-({4-[(4aR,10bR)-9-ethoxy-8-methoxy-3,4,4a,10b-tetrahydro-1H-thiopyrano[4,3-c]isoquinolin-6-yl]phenyl}carbonyl)piperidin-4-yl]-1-[(3-ethyl-1,2,4-thiadiazol-5-yl)methyl]-6-phenylthieno[3,2-d]pyrimidine-2,4(1H,3H)-dione]
5 | 1 to 10 | 10 to 100 | CCOc1cc2c(cc1OC)C(c1ccc(C(=O)N3CCC(n4c(=O)c5sc(-c6ccccc6)cc5n(Cc5ccc(CC)s5)c4=O)CC3)cc1)=N[C@@H]1CCSC[C@H]21 [Example 55, 3-[1-({4-[(4aR,10bR)-9-ethoxy-8-methoxy-3,4,4a,10b-tetrahydro-1H-thiopyrano[4,3-c]isoquinolin-6-yl]phenyl}carbonyl)piperidin-4-yl]-1-[(5-ethylthiophen-2-yl)methyl]-6-phenylthieno[3,2-d]pyrimidine-2,4(1H,3H)-dione]
6 | < 1 | 10 to 100 | CCOc1cc2c(cc1OC)C(c1ccc(C(=O)N3CCC(n4c(=O)c5sc(-c6ccccc6)cc5n(Cc5nnc(COC)o5)c4=O)CC3)cc1)=N[C@@H]1CCSC[C@H]21 [Example 8, 3-[1-({4-[(4aR,10bR)-9-ethoxy-8-methoxy-3,4,4a,10b-tetrahydro-1H-thiopyrano[4,3-c]isoquinolin-6-yl]phenyl}carbonyl)piperidin-4-yl]-1-{[5-(methoxymethyl)-1,3,4-oxadiazol-2-yl]methyl}-6-phenylthieno[3,2-d]pyrimidine-2,4(1H,3H)-dione]
7 | 1 to 10 | < 10 | CCOc1cc2c(cc1OC)C(c1ccc(C(=O)N3CCC(n4c(=O)c5sc(-c6ccccc6)cc5n(Cc5nc(CSC)no5)c4=O)CC3)cc1)=N[C@@H]1CCSC[C@H]21 [Example 11, 3-[1-({4-[(4aR,10bR)-9-ethoxy-8-methoxy-3,4,4a,10b-tetrahydro-1H-thiopyrano[4,3-c]isoquinolin-6-yl]phenyl}carbonyl)piperidin-4-yl]-1-({3-[(methylsulfanyl)methyl]-1,2,4-oxadiazol-5-yl}methyl)-6-phenylthieno[3,2-d]pyrimidine-2,4(1H,3H)-dione]
